From patent US20090069300A1, “ISOQUINOLINYL AND ISOINDOLINYL DERIVATIVES AS HISTAMINE-3 ANTAGONISTS” (Wyeth, priority 2007, published 2009)

Each molecule was assayed against T1, Human Histamine H3 Receptor (Homo sapiens, UniProt Q9Y5N1) (assay: Methyl histamine binding in human histamine H3 receptor cell line). Details: read-out: H3 Binding Ki.
T1 construct: expressed in transfected cells; host or cells: HEK293T (stably transfected; membranes prepared from the cells)
In short: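 Radioligand binding on membranes (10 μg/well) from a human H3 receptor cell line, 1 nM radioligand, 1 h at 30° C. in 50 mM Tris pH 7.5. Nonspecific binding defined with 10 uM clobenpropit, followed by filtration and scintillation counting. IC50 from four-parameter fit, converted to Ki by Cheng-Prusoff.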

T1 sequence (Q9Y5N1 whole entry): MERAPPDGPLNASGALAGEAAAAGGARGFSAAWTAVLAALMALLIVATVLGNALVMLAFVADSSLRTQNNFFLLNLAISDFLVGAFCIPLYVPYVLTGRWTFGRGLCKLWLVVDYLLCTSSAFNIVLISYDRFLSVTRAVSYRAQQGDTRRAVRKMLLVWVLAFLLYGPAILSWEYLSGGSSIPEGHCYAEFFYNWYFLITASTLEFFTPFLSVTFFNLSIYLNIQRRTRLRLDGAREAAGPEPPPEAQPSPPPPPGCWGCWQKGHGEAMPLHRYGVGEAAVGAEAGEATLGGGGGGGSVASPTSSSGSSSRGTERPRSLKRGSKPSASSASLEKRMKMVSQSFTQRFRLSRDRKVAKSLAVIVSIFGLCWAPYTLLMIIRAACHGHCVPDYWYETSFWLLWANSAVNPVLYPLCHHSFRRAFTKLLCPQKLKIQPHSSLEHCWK

| Ki | SMILES |
| --- | --- |
| < 10 nM | O=C(c1ccc(-c2ccc3c(c2)CCN(CCN2CCCC2)C3=O)c(F)c1)N1CCCC1 [Example 138, 6-[2-fluoro-4-(pyrrolidin-1-ylcarbonyl)phenyl]-2-(2-pyrrolidin-1-ylethyl)-3,4-dihydroisoquinolin-1(2H)-one] |
| < 10 nM | CNC(=O)c1ccc(-c2ccc3c(c2)CCN(CCN2CCCC2)C3=O)c(F)c1 [Example 139, 3-fluoro-N-methyl-4-[1-oxo-2-(2-pyrrolidin-1-ylethyl)-1,2,3,4-tetrahydroisoquinolin-6-yl]benzaimde] |
| < 10 nM | CCNC(=O)c1ccc(-c2ccc3c(c2)CCN(CCN2CCCC2)C3=O)c(F)c1 [Example 140, N-ethyl-3-fluoro-4-[1-oxo-2-(2-pyrrolidin-1-ylethyl)-1,2,3,4-tetrahydroisoquinolin-6-yl]benzamide] |
| < 10 nM | CNC(=O)c1ccc(-c2ccc3c(c2)CCN(CCCN2CCCC2)C3=O)cc1 [Example 141, N-methyl-4-[1-oxo-2-(3-pyrrolidin-1-ylpropyl)-1,2,3,4-tetrahydroisoquinolin-6-yl]benzamide] |
| < 10 nM | C[C@@H]1CCCN1CCN1CCc2cc(C(=O)N3CCCCCC3)ccc2C1=O [Example 144, 6-(azepan-1-ylcarbonyl)-2-{2-[(2R)-2-methylpyrrolidin-1-yl]ethyl}-3,4-dihydroisoquinolin-1(2H)-one] |
| < 10 nM | C[C@@H]1CCCN1CCN1CCc2cc(C(=O)NC3CCC3)ccc2C1=O [Example 145, N-cyclobutyl-2-{2-[(2R)-2-methylpyrrolidin-1-yl]ethyl}-1-oxo-1,2,3,4-tetrahydroisoquinoline-6-carboxamide] |
| < 10 nM | C[C@@H]1CCCN1CCN1CCc2cc(C(=O)N3CCCCC3)ccc2C1=O [Example 146, 2-{2-[(2R)-2-methylpyrrolidin-1-yl]ethyl}-6-(piperidin-1-ylcarbonyl)-3,4-dihydroisoquinolin-1(2H)-one] |
| < 10 nM | C[C@@H]1CCCN1CCN1CCc2cc(C(=O)NC3CCCCC3)ccc2C1=O [Example 147, N-cyclohexyl-2-{2-[(2R)-2-methylpyrrolidin-1-yl]ethyl}-1-oxo-1,2,3,4-tetrahydroisoquinoline-6-carboxamide] |
| < 10 nM | C[C@@H]1CCCN1CCN1CCc2cc(C(=O)NC3Cc4ccccc4C3)ccc2C1=O [Example 148, N-(2,3-dihydro-1H-inden-2-yl)-2-{2-[(2R)-2-methylpyrrolidin-1-yl]ethyl}-1-oxo-1,2,3,4-tetrahydroisoquinoline-6-carboxamide] |
| < 10 nM | C[C@@H]1CCCN1CCN1CCc2cc(C(=O)NC3CCCC3)ccc2C1=O [Example 149, N-cyclopentyl-2-{2-[(2R)-2-methylpyrrolidin-1-yl]ethyl}-1-oxo-1,2,3,4-tetrahydroisoquinoline-6-carboxamide] |
| < 10 nM | C[C@@H]1CCCN1CCN1CCc2cc(C(=O)N3CCc4ccccc4C3)ccc2C1=O [Example 150, 6-(3,4-dihydroisoquinolin-2(1H)-ylcarbonyl)-2-{2-[(2R)-2-methylpyrrolidin-1-yl]ethyl}-3,4-dihydroisoquinolin-1(2H)-one] |
| < 10 nM | C[C@@H]1CCCN1CCN1CCc2cc(C(=O)N3CCCC3)ccc2C1=O [Example 151, 2-{2-[(2R)-2-methylpyrrolidin-1-yl]ethyl}-6-(pyrrolidin-1-ylcarbonyl)-3,4-dihydroisoquinolin-1(2H)-one] |
| < 10 nM | C[C@@H]1CCCN1CCN1CCc2cc(C(=O)N3Cc4ccccc4C3)ccc2C1=O [Example 152, 6-(1,3-dihydro-2H-isoindol-2-ylcarbonyl)-2-{2-[(2R)-2-methylpyrrolidin-1-yl]ethyl}-3,4-dihydroisoquinolin-1(2H)-one] |
| < 10 nM | C[C@@H]1CCCN1CCN1CCc2cc(C(=O)Nc3ccncc3)ccc2C1=O [Example 153, 2-{2-[(2R)-2-methylpyrrolidin-1-yl]ethyl}-1-oxo-N-pyridin-4-yl-1,2,3,4-tetrahydroisoquinoline-6-carboxamide] |
